Data from patent US20260102387A1, “IMMUNOSUPPRESSIVE COMPOUNDS” (UNIVERSITÄT BASEL, priority 2022, published 2026).

Tests used:
[1] = tested on: coronin 1 promoter; assay: EC50 analysis for coronin 1 promoter driven GFP inhibition by flow cytometry in RBL cells; type: cell-based; conditions: for EC50: RBL, RBL cells, 48-65 h, flow cytometry
How it was run: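 RBL cells carrying coronin 1 promoter–GFP, mixed with CMV promoter–RFP cells, exposed to compounds 48–65 h and analyzed by flow cytometry with live/dead staining. EC50 derived from GFP inhibition, with RFP and viability as nonspecific and toxicity counter-reads; cycloheximide and DMSO as controls, relative potency normalized to a reference compound.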

[2] = tested on: RBL cells; assay: Cell viability by live-dead staining (cytotoxicity), flow cytometry; type: cell-based, Rat; conditions: Rattus norvegicus, RBL, cell viability via live/dead staining, 48-65 h, read-out: EC50 Toxicity
How it was run: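 RBL cells with coronin 1 promoter-GFP, mixed 1:1 with CMV promoter-RFP RBL cells, exposed to compound 48-65 h. Flow cytometry read RFP fluorescence for non-specific promoter inhibition and live-dead staining for cytotoxicity. EC50 values derived; cycloheximide positive control, DMSO negative.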

[3] = tested on: coronin 1; assay: Western blotting of coronin 1 protein levels in RBL cells; type: cell-based, Rat; conditions: 2 μg/ml, RBL cells
Procedure: buffer with 0.2% SDS containing protease and phosphatase inhibitors (Roche) at 4° C., followed by protein determination (BCA, Pierce) and SDS-PAGE with equal protein amounts transferred onto nitrocellulose and probed using antibodies against the indicated proteins (actin and coronin 1) followed by HRP-labeled secondary antibodies and developed using an enhanced chemi-luminescence imager (Fuji) (FIG. 3C).

[4] = tested on: human peripheral blood mononuclear cells; assay: Mixed Lymphocyte Reaction, tritiated-thymidine uptake; type: cell-based; conditions: human PBMCs
Procedure: For assessment of the suppression of alloresponses by coronin 1 modulators using the MLR methodology, heparinized or EDTA treated blood or buffy coat from two healthy volunteers were enriched for […] using the standard Histopaque 1.077 gradient centrifugation methodology as detailed above. Post enrichment, one of the donors PBMCs was considered as “responders” and the other as “stimulators”. The “stimulators” were treated with mitomycin to prevent proliferation while the “responders” PBMCs were left untreated. The stimulator and responder PBMCs were washed extensively with plain RPMI and subsequently counted and seeded in 96 well plate at a density of 0.1 million cells/well each (responders plus stimulators=0.2 million cells/well) in a volume of 200 μl RPMI-1640 (Sigma) containing 1× penicillin and streptomycin (Gibco), 2 mM L-glutamine (Gibco) and 10% heat inactivated FCS (PAA) along with the vehicle (DMSO) or coronin 1 expression inhibitor at indicated concentrations. Cells were incubated in a 37° C. humidified incubator with a 5% CO2 for five days with the expression inhibitor and at the end of which 0.5 μCi of tritiated thymidine was added to all wells and further incubated for 20 h followed by harvesting on a GF/C filter and measuring the DNA-incorporated counts using a Packard instrument as a measure of immune responses (FIG. 10).

[5] = biological target: T1, BRD3 (Rattus norvegicus, UniProt D3ZWU1); assay: Thermal Proteome Profiling in RBL cells: BRD3; type: binding; conditions: 6 μM
T1 construct: endogenous in cells; host or cells: RBL (rat basophil leukemia) cells
Procedure: To identify the target of the coronin 1 modulatory compounds, Thermal Proteome Profiling (TPP), a methodology based on the property of proteins to alter their thermal stability upon interactions with small molecules (Savitski, M. M., et al., Science, 2014. 346(6205): p. 1255784), was employed. To that end, Rat Basophil Leukemia (RBL) cells were incubated with the compound 12e followed by gradient thermal denaturation (37/41/44/47/50/53/56/59/63/67 degree C.) and mass spectrometric assessment of proteins that get either stabilized or destabilized upon interacting with the compound performed. […]
Thermal proteome profiling was performed as described (Savitski, M. M., et al., Science, 2014. 346(6205): p. 1255784). In brief, RBL cells (50 millions/condition) were incubated with the vehicle DMSO or the compound 12e at 6, 3 or 0 μM concentration for a period of 1 h at the end of which, the cells were washed in ice cold PBS, counted and subjected to thermal denaturation (37/41/44/47/50/53/56/59/63/67° C.) for 3 minutes, lysed by freeze thawing in liquid nitrogen and supernatant containing the soluble proteins separated by centrifugation at 100,000 g for 30 minutes. Equal volumes of the supernatant were taken, subjected to tryptic digestion and labelling with 10 plex-TMT (Thermo Fisher) and the labelled peptides analyzed and quantitated using mass spectrometry (FIG. 13).

[6] = biological target: T2, BRD3 BD1 (Homo sapiens, UniProt Q15059); assay: Bromoscan (Eurofins) binding: BRD3 BD1
T2 construct: T7 phage display (bromodomain fused to phage); purchased Eurofins (bromoscan service); host or cells: E. coli host derived from BL21, T7 phage
Procedure: (§1) Following the initial data from TPP, to further confirm the interaction of compound with BRD3, an in-vitro assay system named bromoscan (Eurofins) was employed to analyse the affinity of the (4S,7R)-configurated compound 12e against the two bromodomains of BRD3.
T7 phage strains displaying bromodomains were grown in 24-well blocks in an E. coli host derived from the BL21 strain. E. coli were grown to log-phase and infected with T7 phage from a frozen stock (multiplicity of infection=0.4) and incubated with shaking at 32° C. until lysis (90-150 minutes). The lysates were centrifuged (5,000×g) and filtered (0.2 μm) to remove cell debris. Streptavidin-coated magnetic beads were treated with biotinylated small molecule or acetylated peptide ligands for 30 minutes at room temperature to generate affinity resins for bromodomain assays. The liganded beads were blocked with excess biotin and washed with blocking buffer (SeaBlock (Pierce), 1% BSA, 0.05% Tween 20, 1 mM DTT) to remove unbound ligand and to reduce non-specific phage binding. […] Test compounds were prepared as 1000× stocks in 100% DMSO. Kds were determined using an 11-point 3-fold compound dilution series with one DMSO control point. All compounds for Kd measurements are distributed by acoustic transfer (non-contact dispensing) in 100% DMSO. […] The bromodomain concentration in the eluates was measured by qPCR. […]

[7] = biological target: T3, BRD3 BD2 (Homo sapiens, UniProt Q15059); assay: Bromoscan (Eurofins) binding: BRD3 BD2
T3 construct: T7 phage display (bromodomain fused to phage); purchased Eurofins (bromoscan service); host or cells: E. coli host derived from BL21, T7 phage
Procedure: as §1
T7 phage strains displaying bromodomains were grown in 24-well blocks in an E. coli host derived from the BL21 strain. E. coli were grown to log-phase and infected with T7 phage from a frozen stock (multiplicity of infection=0.4) and incubated with shaking at 32° C. until lysis (90-150 minutes). The lysates were centrifuged (5,000×g) and filtered (0.2 μm) to remove cell debris. Streptavidin-coated magnetic beads were treated with biotinylated small molecule or acetylated peptide ligands for 30 minutes at room temperature to generate affinity resins for bromodomain assays. The liganded beads were blocked with excess biotin and washed with blocking buffer (SeaBlock (Pierce), 1% BSA, 0.05% Tween 20, 1 mM DTT) to remove unbound ligand and to reduce non-specific phage binding. […] Test compounds were prepared as 1000× stocks in 100% DMSO. Kds were determined using an 11-point 3-fold compound dilution series with one DMSO control point. All compounds for Kd measurements are distributed by acoustic transfer (non-contact dispensing) in 100% DMSO. The compounds were then diluted directly into the assays such that the final concentration of DMSO was 0.09%. All reactions performed in polypropylene 384-well plates. Each was a final volume of 0.02 ml. The assay plates were incubated at room temperature with shaking for 1 hour and the affinity beads were washed with wash buffer (1×PBS, 0.05% Tween 20). The beads were then resuspended in elution buffer (1×PBS, 0.05% Tween 20, 2 μM non-biotinylated affinity ligand) and incubated at room temperature with shaking for 30 minutes. The bromodomain concentration in the eluates was measured by qPCR. The bromoscan analysis was done at Eurofins (FIG. 15).

[8] = tested on: CMV promoter; assay: EC50 analysis for CMV promoter driven RFP inhibition (non-specific activity) by flow cytometry in RBL cells; type: cell-based, cytomegalovirus; conditions: 48-65 h, read-out: EC50 RFP alteration
Procedure: RBL cells expressing GFP under coronin 1 promoter and optionally with RBL cells expressing RFP under CMV promoter were mixed in equal numbers and incubated with the compounds at indicated concentrations for 48-65 h and analyzed by flow cytometry for alteration in coronin 1 promoter (GFP fluorescence), CMV promoter (RFP fluorescence) values. In addition, the cells were labelled with live-dead marker for assessing cell viability status by flow cytometry. Cycloheximide (CHX) serves as positive control and DMSO serves as negative controls. Effective Concentration (EC50) values for coronin 1 promoter inhibition via GFP fluorescence analysis, non-specific promoter inhibition via CMV promoter driven-RFP fluorescence analysis and cell viability via live/dead staining as a measure for toxicity in flow cytometry for compounds (10-22 and 50a-65a) are shown in Table 6 and Table 7. Based on the EC50 analysis of the inhibition of coronin 1 promoter driven GFP fluorescence the (4S,7R)-configurated eutomers were identified (Structures FIG. 9A-C). This is exemplified for compounds containing two stereocenters by eutomers 11c and 13a. […] Subsequent EC50 evaluations (Table 7) were performed with compound 13a as standard for relative potency normalized to a value of 1.00 (relative potency calculated as [EC50 GFP inhibition 13a]/[EC50 GFP inhibition compound of interest]).

[9] = tested on: imiquimod-induced psoriasis; assay: Imiquimod-induced mouse model for psoriasis; type: in vivo, mice (Balb/c); conditions: 50 mg/kg body weight, twice daily, topical route, day 4
Procedure: Wild type mice (Balb/c strain, 8-12 weeks), were age and sex matched. The dorsal skin was shaved with a trimmer on an area of ˜2 cm^2 and subjected to topical application of 5% imiquimod cream (Aldara) starting from day 1 and continued for up to 7 days in the morning. For compound administration, mice were applied topically with the compound, twice a day starting 48 hours before the first Imiquimod application and all along of the experiment up to day 7. In the morning, compound was applied 2 h prior to the imiquimod application (FIG. 12A). Mice were scored every day for the inflammatory lesion and general health status as follows: […]

T3 sequence (Q15059 306-415 limits assumed): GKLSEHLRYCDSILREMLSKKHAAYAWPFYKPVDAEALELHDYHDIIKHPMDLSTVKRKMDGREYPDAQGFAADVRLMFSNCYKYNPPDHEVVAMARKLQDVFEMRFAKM
T2 sequence (Q15059 34-140 limits assumed): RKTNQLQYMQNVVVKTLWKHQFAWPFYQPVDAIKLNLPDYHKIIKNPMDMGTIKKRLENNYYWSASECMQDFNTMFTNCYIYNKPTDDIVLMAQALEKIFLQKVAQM
T1 sequence (D3ZWU1 1-725): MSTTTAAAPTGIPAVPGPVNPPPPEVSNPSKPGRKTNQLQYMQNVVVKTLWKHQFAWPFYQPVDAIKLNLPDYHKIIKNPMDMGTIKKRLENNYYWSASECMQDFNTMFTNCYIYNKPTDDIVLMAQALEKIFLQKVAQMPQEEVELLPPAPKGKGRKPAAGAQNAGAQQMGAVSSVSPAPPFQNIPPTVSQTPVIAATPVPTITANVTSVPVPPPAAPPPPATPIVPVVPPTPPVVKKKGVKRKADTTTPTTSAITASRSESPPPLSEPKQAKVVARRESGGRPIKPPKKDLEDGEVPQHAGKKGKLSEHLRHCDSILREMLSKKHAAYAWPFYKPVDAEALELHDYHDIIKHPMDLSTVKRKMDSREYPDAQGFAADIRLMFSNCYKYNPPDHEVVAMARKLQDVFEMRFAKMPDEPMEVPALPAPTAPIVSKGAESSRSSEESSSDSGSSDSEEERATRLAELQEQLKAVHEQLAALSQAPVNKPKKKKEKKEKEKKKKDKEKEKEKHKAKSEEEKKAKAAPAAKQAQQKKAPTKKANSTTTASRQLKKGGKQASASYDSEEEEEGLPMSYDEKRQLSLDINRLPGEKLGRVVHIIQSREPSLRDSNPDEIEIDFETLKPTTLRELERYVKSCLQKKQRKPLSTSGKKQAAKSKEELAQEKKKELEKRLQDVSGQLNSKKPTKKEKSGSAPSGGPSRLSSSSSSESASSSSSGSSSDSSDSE

increase of thermal denaturation of BRD3 [5]	SMILES	EC50 [1] [nM]	EC50 [2] [nM]	coronin 1 depletion by Western blot [3]	Mixed Lymphocyte Responses (tritiated-thymidine uptake) [4]	Kd [6] [nM]	Kd [7] [nM]	relative affinity for BRD3 bromodomains BD1 and BD2 [7]	rel. potency GFP inhibition ([1]; [EC50 GFP inhibition 13a]/[EC50 GFP inhibition compound of interest], 13a = 1.00)	EC50 [8] [nM]	disease score (erythema, surface area affected, psoriatic plaque formation) [9]
over four degrees Celsius	COc1ccccc1[C@H]1CC(=O)C2=C(C1)NC(C)=C(C(=O)OC[C@@H]1CCCO1)[C@H]2c1cccc(O)c1 [12e, tetrahydro-2-furanylmethyl (4S, 7R)-4-(3-hydroxyphenyl)-7-(2-methoxyphenyl)-2-methyl-5-oxo-1,4,5,6,7,8-hexahydro-3-quinolinecarboxylate]	70	> 20000	showed coronin 1 depletion	inhibition	~200	~10	higher affinity for the BD2 domain			
	COc1ccccc1[C@H]1CC(=O)C2=C(C1)NC(C)=C(C(=O)OC1CCOCC1)[C@H]2c1cccc(O)c1 [13a, tetrahydro-2H-pyran-4-yl (4S, 7R)-4-(3-hydroxyphenyl)-7-(2-methoxyphenyl)-2-methyl-5-oxo-1,4,5,6,7,8-hexahydro-3-quinolinecarboxylate]	65	> 2500	showed coronin 1 depletion		150	4	higher affinity for the BD2 domain	1.00	> 2500	suppresses autoimmune-inflammatory disease severity
